The values below come from publication PMC5854701 (Scientific Reports, 2018).

Common to all, as to assay: microbe, parasite or virus in culture
Test [1] has as its system A/Switzerland/9715293/2013 (H3N2).
The subject of test [2] is B/Phuket/3073/2013 (Yamagata). The note with it: Influenza B virus.
Test [3] relates to B/Utah/09/2014 (Yamagata). The note with it: Influenza B virus.
Test [4] relates to A/Denmark/524/2009 (H1N1).
The subject of test [5] is B/Brisbane/60/2008 (Victoria). The note with it: Influenza B virus.
Test [6] deals with A/Washington/29/2009 (H1N1).
Test [7] deals with B/Memphis/20/1996 (Yamagata). The note with it: Influenza B virus.
Test [8] concerns A/Denmark/528/2009 (H1N1).
Another test relates to A/Texas/04/2009 (H1N1).
For test [9], the system named is B/Wisconsin/1/2010 (Yamagata). The note with it: Influenza B virus.
For test [10], the system named is A/California/07/2009 (H1N1).

For `C[C@@H](c1ccccc1)n1nnnc1[C@H](c1ccsc1)N1CCC(n2c(=O)[nH]c3ccccc32)CC1` [Compound 12a, 1‐{1‐[(S)‐{1‐[(1 S)‐1‐phenylethyl]‐1 H‐1,2,3,4‐tetrazol‐5‐yl}(thiophen‐3‐yl)methyl]piperidin‐4‐yl}‐2,3‐dihydro‐1 H‐1,3‐benzodiazol‐2‐one], the EC50 was 1400 ± 600 nM in test [1]; 1200 ± 200 nM in test [2]; 1500 ± 300 nM in test [3]; 800 ± 200 nM in test [4]; 600 ± 300 nM in [5]; 900 ± 300 nM in test [6]. Also, the EC50 in test [7] was found to be 2700 ± 200 nM; in test [8], 900 ± 300 nM; with A/Texas/04/2009 (H1N1) it was 1100 ± 400 nM; in test [9], 800 ± 300 nM; in test [10], 1300 ± 400 nM.
As for `O=c1[nH]c2ccccc2n1C1CCN(C(CCc2ccccc2)c2nnnn2-c2ccc3c(c2)OCCO3)CC1` (centres unmarked) [Compound 5, 1‐(1‐{1‐[1‐(2,3‐dihydro‐1,4‐benzodioxin‐6‐yl)‐1,2,3,4‐tetrazol‐5‐yl]‐3‐phenylpropyl}piperidin‐4‐ yl)‐3 H‐1,3‐benzodiazol‐2‐one], the EC50 in test [4] turned out to be 1800 ± 400 nM; in test [5], 1000 ± 300 nM; in test [6] it was 1600 ± 500 nM; with A/Texas/04/2009 (H1N1), 3500 ± 1100 nM; in [9], 900 ± 200 nM; in [10] it was 4500 ± 700 nM.

The EC50 is the concentration at which the effect is half-maximal.
